Experimental data from ChEMBL document CHEMBL1147047, “Design of protein membrane interaction inhibitors by virtual ligand screening, proof of concept with the C2 domain of factor V” (Proc Natl Acad Sci U S A, 2007).
Calls of active or inactive are those of the source. The rule behind the calls is not given here.

Tests used:
[1] = target: Prothrombin (Homo sapiens) (UniProt P00734); experiment: Inhibition of calcium-dependent membrane binding activity of prothrombin
Coagulation factor V [2] = target: T1, Coagulation factor V (Homo sapiens, UniProt P12259); experiment: Inhibition of factor 5a-mediated prothrombin activation in human plasma by prothrombinase assay; type: cell-free
T1 sequence (P12259 29-737 limits assumed): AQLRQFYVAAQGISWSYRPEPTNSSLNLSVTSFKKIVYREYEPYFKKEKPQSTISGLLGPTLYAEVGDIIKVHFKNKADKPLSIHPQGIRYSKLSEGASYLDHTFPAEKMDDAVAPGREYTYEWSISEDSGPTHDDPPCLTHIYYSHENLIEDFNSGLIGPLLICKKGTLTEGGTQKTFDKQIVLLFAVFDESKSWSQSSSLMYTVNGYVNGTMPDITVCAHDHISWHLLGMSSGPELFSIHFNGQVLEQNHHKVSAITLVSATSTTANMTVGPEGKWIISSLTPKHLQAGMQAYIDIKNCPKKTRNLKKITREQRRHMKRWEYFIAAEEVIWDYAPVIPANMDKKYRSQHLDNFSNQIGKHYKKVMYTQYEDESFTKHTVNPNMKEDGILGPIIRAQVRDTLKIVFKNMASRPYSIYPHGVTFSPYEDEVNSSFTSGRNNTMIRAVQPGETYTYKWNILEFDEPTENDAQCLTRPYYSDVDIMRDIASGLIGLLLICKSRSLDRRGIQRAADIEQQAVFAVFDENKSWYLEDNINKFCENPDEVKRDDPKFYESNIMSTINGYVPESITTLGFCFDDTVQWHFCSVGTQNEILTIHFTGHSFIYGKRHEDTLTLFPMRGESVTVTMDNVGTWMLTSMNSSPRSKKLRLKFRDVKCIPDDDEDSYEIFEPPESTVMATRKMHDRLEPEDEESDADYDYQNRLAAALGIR
T1 sequence (P12259 1574-2224 limits assumed): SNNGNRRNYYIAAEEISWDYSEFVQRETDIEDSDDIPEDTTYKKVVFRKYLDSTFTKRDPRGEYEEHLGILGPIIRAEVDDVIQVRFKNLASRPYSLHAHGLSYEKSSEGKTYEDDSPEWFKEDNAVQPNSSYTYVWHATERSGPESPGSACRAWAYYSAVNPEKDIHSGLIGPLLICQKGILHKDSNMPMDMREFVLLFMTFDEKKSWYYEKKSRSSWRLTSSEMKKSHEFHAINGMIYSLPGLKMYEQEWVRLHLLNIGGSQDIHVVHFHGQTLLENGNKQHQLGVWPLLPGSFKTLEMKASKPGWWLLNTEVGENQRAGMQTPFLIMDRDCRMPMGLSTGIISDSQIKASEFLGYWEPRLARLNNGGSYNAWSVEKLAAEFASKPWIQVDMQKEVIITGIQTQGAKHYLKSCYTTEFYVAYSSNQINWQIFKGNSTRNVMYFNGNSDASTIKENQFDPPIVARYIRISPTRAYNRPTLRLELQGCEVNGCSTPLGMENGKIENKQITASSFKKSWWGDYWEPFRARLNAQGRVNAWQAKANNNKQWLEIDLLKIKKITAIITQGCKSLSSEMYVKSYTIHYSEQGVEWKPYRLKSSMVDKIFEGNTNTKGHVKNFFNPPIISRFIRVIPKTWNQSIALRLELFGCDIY

Coagulation factor V [3] = target: T1, Coagulation factor V; experiment: Inhibition of factor 5a-mediated prothrombin activation in human plasma at 100 uM by prothrombinase assay
Coagulation factor V [4] = target: T1, Coagulation factor V; experiment: Inhibition of human recombinant factor 5a C2 domain binding to immobilized phospholipid by surface plasmon resonance assay
[5] = target: Coagulation factor X (Homo sapiens) (UniProt P00742); experiment: Inhibition of calcium-dependent membrane binding activity of factor 10a
Coagulation factor X (Homo sapiens), sequence (P00742 41-179 limits assumed): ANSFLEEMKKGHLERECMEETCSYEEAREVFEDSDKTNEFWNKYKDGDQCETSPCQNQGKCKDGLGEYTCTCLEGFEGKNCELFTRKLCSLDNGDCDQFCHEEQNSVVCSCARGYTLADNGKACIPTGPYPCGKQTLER
Coagulation factor X (Homo sapiens), sequence (P00742 235-488 limits assumed): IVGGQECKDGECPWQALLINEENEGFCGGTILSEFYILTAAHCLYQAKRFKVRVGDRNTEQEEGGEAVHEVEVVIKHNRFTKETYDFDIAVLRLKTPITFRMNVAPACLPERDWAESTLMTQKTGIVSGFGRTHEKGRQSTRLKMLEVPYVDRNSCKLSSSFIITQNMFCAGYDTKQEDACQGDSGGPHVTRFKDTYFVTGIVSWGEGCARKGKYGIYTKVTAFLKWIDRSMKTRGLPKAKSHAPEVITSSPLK

Coagulation factor V [6] = target: T1, Coagulation factor V; experiment: Inhibition of factor 5a-mediated prothrombin activation in human plasma at 50 uM in presence of 40 mg/ml albumin; type: cell-free; parameters: scale not given: the % may be the effect or the level left
Coagulation factor V [7] = target: T1, Coagulation factor V; experiment: Inhibition of human factor 5a light chain binding to immobilized phospholipid by surface plasmon resonance assay
[8] = target: Coagulation factor X (Homo sapiens) (UniProt P00742); experiment: Inhibition of factor 10a in human plasma; type: cell-free
Coagulation factor VIII = Coagulation factor VIII (Homo sapiens, UniProt P00451); experiment: Inhibition of human factor 8 binding to immobilized phospholipid by surface plasmon resonance assay
Coagulation factor VIII, sequence (P00451 20-759 limits assumed): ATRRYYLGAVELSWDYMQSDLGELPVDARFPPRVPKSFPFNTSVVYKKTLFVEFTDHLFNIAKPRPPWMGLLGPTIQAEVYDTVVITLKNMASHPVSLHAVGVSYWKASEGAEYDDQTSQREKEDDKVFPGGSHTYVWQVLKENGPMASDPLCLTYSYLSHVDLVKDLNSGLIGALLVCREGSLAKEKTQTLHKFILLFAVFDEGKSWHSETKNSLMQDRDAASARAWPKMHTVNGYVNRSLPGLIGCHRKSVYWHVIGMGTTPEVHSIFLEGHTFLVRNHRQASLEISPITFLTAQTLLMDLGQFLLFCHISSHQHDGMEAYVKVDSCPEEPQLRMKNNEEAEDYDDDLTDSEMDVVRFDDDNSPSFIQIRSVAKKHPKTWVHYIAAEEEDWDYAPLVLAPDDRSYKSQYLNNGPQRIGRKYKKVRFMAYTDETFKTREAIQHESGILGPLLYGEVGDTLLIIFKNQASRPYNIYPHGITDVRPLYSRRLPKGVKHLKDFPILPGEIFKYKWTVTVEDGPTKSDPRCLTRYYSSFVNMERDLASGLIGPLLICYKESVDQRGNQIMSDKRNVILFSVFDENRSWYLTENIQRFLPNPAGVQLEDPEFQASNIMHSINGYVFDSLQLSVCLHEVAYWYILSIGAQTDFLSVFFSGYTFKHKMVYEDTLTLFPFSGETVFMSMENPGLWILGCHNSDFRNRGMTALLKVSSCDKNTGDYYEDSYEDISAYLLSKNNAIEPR
Coagulation factor VIII, sequence (P00451 1668-2351 limits assumed): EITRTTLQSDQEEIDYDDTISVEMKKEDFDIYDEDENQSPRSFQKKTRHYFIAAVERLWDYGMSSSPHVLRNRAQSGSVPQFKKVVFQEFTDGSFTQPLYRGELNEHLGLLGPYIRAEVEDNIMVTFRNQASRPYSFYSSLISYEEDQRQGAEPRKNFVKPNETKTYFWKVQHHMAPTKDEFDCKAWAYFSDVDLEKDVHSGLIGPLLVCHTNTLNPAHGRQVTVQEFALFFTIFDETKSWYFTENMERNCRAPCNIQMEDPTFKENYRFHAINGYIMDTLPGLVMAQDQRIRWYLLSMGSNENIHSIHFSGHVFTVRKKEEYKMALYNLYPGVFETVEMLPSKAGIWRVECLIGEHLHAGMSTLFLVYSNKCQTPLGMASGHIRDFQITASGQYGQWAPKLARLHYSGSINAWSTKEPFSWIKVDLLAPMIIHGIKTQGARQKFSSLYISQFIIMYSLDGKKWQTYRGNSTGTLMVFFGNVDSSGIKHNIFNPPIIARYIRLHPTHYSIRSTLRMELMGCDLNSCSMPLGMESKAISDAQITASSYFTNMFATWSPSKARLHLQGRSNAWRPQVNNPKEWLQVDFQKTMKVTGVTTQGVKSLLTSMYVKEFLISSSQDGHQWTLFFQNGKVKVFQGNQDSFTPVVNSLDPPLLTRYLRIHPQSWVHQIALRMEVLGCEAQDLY

Structure (SMILES)	Activity [1]	IC50 (Coagulation factor V [2])	inhibition (Coagulation factor V [3])	IC50 (Coagulation factor V [4])	Activity [5]	Activity (Coagulation factor V [6])	IC50 (Coagulation factor V [7])	Activity [8]	IC50 (Coagulation factor VIII)
CCOc1cc(/C=C2/NC(=O)N(Cc3ccccc3F)C2=O)ccc1OCc1ccc(C(=O)O)cc1	inactive	18.6 µM	> 99%	3.51 µM	inactive	25%	2.5 µM	inactive	–
COc1cc([N+](=O)[O-])ccc1-c1ccc(/C=C2\C(=O)NC(=O)N(c3ccc4c(c3)OCO4)C2=O)o1	inactive	62.9 µM	> 99%	5.53 µM	inactive	–	4.8 µM	inactive	–
CC1=NN(c2cccc(C(=O)O)c2)C(=O)/C1=C\c1ccc(-c2ccc([N+](=O)[O-])cc2)o1	inactive	9.19 µM	> 99%	6.71 µM	inactive	–	8.56 µM	inactive	–
N=c1n(CCN2CCCCC2)c2ccccc2n1CC(O)COc1ccc(Cl)cc1Cl (single isomer, unassigned)	inactive	32.4 µM	> 99%	14 µM	–	–	15.7 µM	inactive	7.8 µM
Cc1cc(-c2ccc(/C=C3/C(=O)NN(c4cccc(Cl)c4)C3=O)o2)c([N+](=O)[O-])cc1C	inactive	8.95 µM	> 99%	7.4 µM	inactive	–	8.55 µM	inactive	–
O=C(COc1ccc(Cl)cc1Cl)Nc1ccc(C(=O)Nc2ccccc2C(=O)O)cc1	inactive	40.6 µM	> 99%	16.4 µM	inactive	–	14.1 µM	inactive	–
O=C1NC(=O)N(c2ccccc2F)C(=O)/C1=C\c1cc(Cl)ccc1OCc1ccc([N+](=O)[O-])cc1	inactive	38 µM	> 99%	21.9 µM	–	–	14.1 µM	inactive	8.9 µM
CC1=NN(c2ccc(Br)cc2)C(=O)/C1=C/c1ccc(-c2cccc(C(=O)O)c2)o1	–	1.81 µM	> 99%	–	inactive	–	–	inactive	–
CC(C)NC[C@@H](O)Cn1c2c(c3ccccc31)CCc1c-2cnn1-c1ccccc1	–	3.8 µM	> 99%	–	inactive	–	–	inactive	–
